According to patent publication US10111841B2, “Stabilization of alcohol intoxication-induced cardiovascular instability” (UNIVERSITY OF SOUTH FLORIDA, priority 2015, dated 2018):

Legend:
HUVEC = test: TER of HUVEC monolayers on gold-plated electrodes (endothelial barrier function); type: cell-based; conditions: for course of barrier function (TER) over time / restoration of barrier function (TER) after alcohol: 50 mM alcohol, 10 min later 1 μM compound
Procedure: (§1) FIGS. 3A-3D. Alcohol-induced endothelial barrier dysfunction in cultured endothelial cell monolayers. FIG. 3A: Time-course of changes in transepithelial electrical resistance (TER) of HUVEC monolayers following application of vehicle (water) or 20, 50, or 100 mM alcohol. FIG. 3B: Time course of alcohol-induced changes in TER in HMVEC-C monolayers. FIG. 3C: The mean maximum alcohol-induced changes in TER in HUVEC. FIG. 3D: Mean maximum alcohol-induced changes in TER in HMVEC-c. *P<0.05 and **P<0.01 vs. vehicle. One-way ANOVA followed by Dunnett's test, all groups, N=4.
FIGS. 6A and 6B. Alcohol-induced barrier dysfunction in HUVEC was resolved faster by S1P treatment. HUVEC were cultured to confluence on gold-plated electrodes and then serum starved for 1-2 hours. Following 30 minutes of baseline TER measurements, alcohol was added to the wells to a final concentration of 50 mM for 5 minutes before treatment with 1 μM of […] or vehicle. FIG. 6A: Time course of changes in HUVEC monolayer TER in response to 50 mM alcohol, followed by addition of 1 μM S1P 5 min later, or vehicle (PBS) 5 min later. FIG. 6B: Mean recovery time for HUVEC, i.e., time to return to baseline TER, starting from the time point immediately preceding alcohol was added. **P<0.01 versus alcohol/vehicle group. Statistical analysis by t-test; all HUVEC groups, N=8.
(§2) FIGS. 10A-10C. Selective S1P1R agonist FTY720-phosphonate ameliorates alcohol-induced microvascular hyperpermeability. FTY720 and its analogs reverse alcohol-induced disruption of EC monolayer barrier function. In all panels, 50 mM alcohol or vehicle was applied first, and 10 min later, 1 μM of FTY720 (FIG. 10A) FTY720-P (FIG. 10B) or FTY720 (S)-phosphonate (FIG. 10C) or vehicle was added. […] A minimum of N=4 monolayers in each group.
(§3) The direct impact of alcohol on endothelial barrier function was tested using cultured HUVEC or HMVEC-c confluent monolayers grown on gold-plated electrodes. Thirty minutes of baseline transepithelial electrical resistance (TER) measurements were recorded before the cells were treated with alcohol at final bath concentrations of 20, 50 or 100 mM. Alcohol was added directly into the MEDIA within the wells. […] The decrease in TER was alcohol concentration-dependent with high alcohol concentrations eliciting a larger drop in TER. The maximal decline in TER from baseline was significant for the 50 and 100 mM concentrations in both HUVEC (FIG. 3C) and HMVEC-c (FIG. 3D).
The inventors next set out to determine if S1P could similarly reduce the recovery time for TER to be reestablished to baseline in HUVEC pretreated with alcohol. Following 30 minutes of baseline TER measurements, alcohol was added to the wells to a final concentration of 50 mM for 5 minutes before treatment with 1 μM S1P or vehicle.
(§4) FIGS. 10A-C show TER data. TER is an index of the barrier function of endothelial cells. […] Unlike S1P, which restored the barrier in about 5 min (see FIG. 6A), FTY720 restored barrier function occurred gradually (FIG. 10A).

endothelial barrier = conditions: in vitro; cited from earlier work
S1P1R = S1P1R (Homo sapiens, UniProt P21453); conditions: cited from earlier work
Sequence of S1P1R (P21453 whole entry): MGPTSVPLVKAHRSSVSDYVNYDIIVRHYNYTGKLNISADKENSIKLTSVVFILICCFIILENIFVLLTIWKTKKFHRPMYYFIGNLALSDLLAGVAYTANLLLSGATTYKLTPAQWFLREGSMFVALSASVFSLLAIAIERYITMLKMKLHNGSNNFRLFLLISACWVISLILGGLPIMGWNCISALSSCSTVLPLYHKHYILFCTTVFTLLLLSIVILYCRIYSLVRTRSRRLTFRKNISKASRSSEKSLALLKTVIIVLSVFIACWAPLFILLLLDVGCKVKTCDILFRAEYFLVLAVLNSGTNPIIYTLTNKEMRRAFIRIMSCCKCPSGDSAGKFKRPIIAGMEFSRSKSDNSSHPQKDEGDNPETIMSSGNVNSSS

[1] = multiple sclerosis patients; cited from earlier work
[2] = swine, uncontrolled hemorrhage; cited from earlier work
[3] = combined hemorrhage and trauma (laparotomy), anesthetized rats; cited from earlier work
[4] = 0.5 mg/kg; anesthetized rats; several hours after administration; cited from earlier work
[5] = test system: microvascular hyperpermeability; conditions: in vivo; cited from earlier work
HMVEC-c = test: TER of HMVEC-c / cardiac microvascular EC monolayers; type: cell-based
Procedure: as §1, §2, §3, §4

[6] = MAP during fixed-pressure hemorrhage and resuscitation (HSR) protocol; type: in vivo, Sprague-Dawley rats
[7] = test system: mesenteric microcirculation; test: IVM of FITC-albumin extravasation in the rat mesenteric microcirculation; type: in vivo, Sprague-Dawley rats
Procedure: FIGS. 2A-2D. […] FIG. 2C: Mean maximum change in IOI in the extravascular space from the initial baseline just after FITC-albumin was injected i.v. to the end of the IVM experiment. FIG. 2D: Mean mesenteric arteriolar diameter in the observed microvascular beds. *P<0.05, alcohol vs. water. Mann-Whitney U-test, N=5 rats studied for the water group, and N=8 rats studied for the alcohol group.
FIGS. 7A-7C. […] White circles highlight areas of FITC-Albumin fluorescence in the surrounding interstitium. White arrows indicate areas of FITC-Albumin accumulation resulting in hotspots of fluorescence within and just outside the vessel walls. […] FIG. 7C: Mean maximum change in IOI in the extravascular space, from the initial baseline just after FITC-albumin was injected i.v. **P<0.01, Alcohol-Sham. Statistical analysis by t-test; both treatment groups, N=8.
S1P has been used to reduce the permeability of rat microvessels to BSA, however, only one study has been performed in intact animals. Using the inventors' established method of observing hyperpermeability in the rat mesentery, the ability of S1P to abolish or attenuate the enhanced extravasation of FITC-albumin caused by acute alcohol intoxication was examined. After receiving a 2.5 g/kg bolus of alcohol and allowed free roaming for 30 minutes, rats were prepared for IVM and administered S1P to a final concentration of 2 μM within the FITC-albumin infusion. This provided an estimated final plasma concentration of S1P in the rats of 0.2 μM.

[8] = MAP during IVM following HSR; type: in vivo, Sprague-Dawley rats; conditions: alcohol-intoxicated rats; 0.1 mg/kg S1P during resuscitation; 30 minutes IVM; only 3 experiments
Procedure: The time-course of changes in MAP of Sprague-Dawley rats treated with alcohol, water, or alcohol and 0.1 mg/kg S1P within the resuscitation fluid during the IVM stage.
As before, immediately following completion of the HSR protocol the animal was anesthetized and prepped for IVM. During IVM, MAP is continually monitored. […] At the time of writing this, only 3 IVM experiments were performed with alcohol-intoxicated animals that received S1P during resuscitation.

[9] = test system: mesenteric microcirculation
From the text: FIG. 5A: Representative fluorescent image of the mesenteric microcirculation of a rat that received water and undergoing sham-HSR illustrating that FITC-albumin was present mainly inside the lumen of microvessels. […] FIG. 5C: Representative image of the mesenteric microcirculation of a water-treated rat that underwent HSR. FIG. 5D: Representative image of the mesenteric microcirculation of an alcohol-treated rat that underwent HSR.
Immediately following completion of the HSR protocol the animal was anesthetized and prepped for IVM. […] This extravasation was quantified by calculating the mean 60-minute RM.

[10] = Blood alcohol concentration after intragastric alcohol; conditions: 30 minutes after 2.5 g/kg alcohol vs time-matched water-treated groups
Procedure: Blood alcohol concentrations (BAC) 30 minutes after administration of 2.5-g/kg alcohol or isovolumic water. Intragastric catheters were implanted 2-3 days before the day of experiments. Male Sprague-Dawley rats were administered 2.5 g/kg alcohol or isovolumic water and allowed to freely roam in their cages for 30 minutes. Following 30 minutes incubation, experimental protocols were begun and blood samples obtained.
Administration of a 2.5-g/kg dose of alcohol was performed via an intragastric catheter that was implanted 2-3 days before the day of experiment. The animals were allowed to roam freely for 30 minutes after administration.

[11] = cardiac microvascular EC, 50 mM alcohol, 10 min later 1 μM compound
[12] = alcohol-intoxicated rats (2.5 g/kg), S1P in the FITC-albumin infusion, estimated plasma 0.2 μM
[13] = 2.5 g/kg alcohol vs water-treated animals

CCCCCCCCc1ccc(CC[C@@](N)(CO)CCP(=O)(O)O)cc1 [FTY720 (S)-phosphonate, (S)-3-amino-3-(hydroxymethyl)-5-(4-octylphenyl)pentylphosphonic acid]
course of barrier function (TER) over time (HUVEC): sustained enhancement of barrier integrity over time | restoration of barrier function (TER) after alcohol (HUVEC): rapid rescue of barrier function, rising above baseline levels | endothelial barrier function (endothelial barrier): longer-lasting endothelial barrier enhancement | S1P1R turnover (S1P1R): limits this S1P1R turnover

CCCCCCCCc1ccc(CCC(N)(CO)CO)cc1 [FTY720, 2-amino-2-(4-octylphenethyl)propane-1,3-diol]
course of barrier function (TER) over time (HUVEC): gradually | restoration of barrier function (TER) after alcohol (HUVEC): accelerated its restoration to the baseline level | rate of clinical relapses [1]: reduce the rate of clinical relapses | survival [2]: improved survival | hypotension and lung injury [3]: reduced | endothelial barrier function (endothelial barrier): enhances endothelial barrier function | baseline blood pressure [4]: reduced baseline blood pressure | S1P1R turnover (S1P1R): can cause proteasome-mediated turnover of S1P1R | VEGF- and histamine-induced microvascular hyperpermeability [5]: reduces

CCCCCCCCc1ccc(CC[C@](N)(CO)COP(=O)(O)O)cc1 [FTY720-P]
course of barrier function (TER) over time (HMVEC-c; [11]): overshoot over the original baseline, followed by a gradual drop over time | restoration of barrier function (TER) after alcohol (HMVEC-c; [11]): much more rapid elevation in barrier function

CCCCCCCCCCCCC/C=C/[C@@H](O)[C@@H](N)COP(=O)(O)O [S1P, sphingosine-1-phosphate]
TER time course after alcohol (HUVEC; 50 mM alcohol for 5 minutes, then 1 μM S1P): rapidly rise to the previously established baseline levels | reestablishing baseline TER faster than cells treated with vehicle (recovery time) (HUVEC; 50 mM alcohol for 5 minutes, then 1 μM S1P or vehicle): about 30 minutes | time to restore the barrier (HUVEC; after alcohol, FIG. 6A): about 5 min | recovery of MAP during resuscitation ([6]; alcohol-intoxicated rats, 0.1 mg/kg S1P within lactated Ringer's resuscitation fluid): same impaired recovery of MAP | extravasation of FITC-albumin [7, 12]: marked reduction | mean IOI in the extravascular space vs FITC-albumin infusion alone [7, 12]: significantly lower | MAP higher than alcohol-intoxicated animals that received standard fluids [8]: 20-25 mm Hg

CCO [alcohol]
maximal decline in TER from baseline (HUVEC; 50 and 100 mM alcohol vs vehicle): significant | TER of the monolayer (HUVEC; alcohol 20, 50 or 100 mM): immediate decline in the TER | recovery of MAP during the resuscitation phase ([6]; 2.5 g/kg alcohol vs water): significantly blunted | baseline MAP [6, 13]: significantly lower | total blood volume shed to achieve the 40-60 mm Hg target MAP (TBR) [6, 13]: significantly less | mean 60-minute IOI (printed RN) in the extravascular space ([9]; alcohol-HSR rats vs water-HSR rats): significantly higher | mean 60-minute IOI in the extravascular space ([9]; alcohol-sham rats vs water-sham rats): significantly higher | mean maximal change in IOI in the extravascular space adjacent to postcapillary venules ([7]; 2.5 g/kg alcohol intragastric vs water control rats): significantly higher | mean arteriolar diameter of third-order arterioles ([7]; 2.5 g/kg alcohol vs control groups): no significant difference | BAC [10]: significantly higher | maximal decline in TER from baseline (HMVEC-c; HMVEC-c, 50 and 100 mM alcohol vs vehicle): significant | TER of the monolayer (HMVEC-c; HMVEC-c, alcohol 20, 50 or 100 mM): immediate decline in the TER
